pIC50: −log10 of the molar value.
Molecular target: T1, Motilin Receptor (Oryctolagus cuniculus, UniProt G1T803)
T1 construct: The muscle tissue was homogenized in 10 volumes of 50 mM Tris-Cl; from tissue; host or cells: rabbit colon smooth muscle, crude membrane homogenate
Experiment: Motilin receptor binding, rabbit colon membranes, 125I porcine motilin
Set-up: Rabbit Colon % Inh / inhibition / % Inh (Rabbit colon): dose or concentration left out as unconfirmed
Settings: rabbit colon membranes; for inhibition: read-out: Rabbit Colon % Inh; for pIC50: read-out: Rabbit Colon IC50

T1 sequence (G1T803 1-400): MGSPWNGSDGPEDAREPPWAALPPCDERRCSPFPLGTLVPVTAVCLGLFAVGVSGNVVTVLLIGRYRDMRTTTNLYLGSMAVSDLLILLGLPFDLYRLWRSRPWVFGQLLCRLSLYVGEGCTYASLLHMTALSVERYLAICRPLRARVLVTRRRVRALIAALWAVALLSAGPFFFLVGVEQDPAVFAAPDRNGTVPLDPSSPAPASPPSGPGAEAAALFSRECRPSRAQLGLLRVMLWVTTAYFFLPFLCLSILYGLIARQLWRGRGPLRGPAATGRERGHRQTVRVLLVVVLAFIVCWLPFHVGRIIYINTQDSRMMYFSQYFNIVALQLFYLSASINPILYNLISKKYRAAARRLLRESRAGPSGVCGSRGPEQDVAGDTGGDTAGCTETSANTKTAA

Compound | Rabbit Colon % Inh [%] | inhibition [%] | pIC50
O=C(CCc1ccccc1)N[C@@H](Cc1ccccc1)C(=O)N(Cc1ccc(F)cc1)c1cccc(OCCN2CCOCC2)c1 [compound 130] | 8 | – | –
O=C([C@H](Cc1ccccc1)NC(=O)C(Cl)(Cl)Cl)N(Cc1ccc(F)cc1)c1cccc(OCCN2CCOCC2)c1 [compound 131] | 19 | – | –
O=C(N[C@@H](Cc1ccccc1)C(=O)N(Cc1ccc(F)cc1)c1cccc(OCCN2CCOCC2)c1)c1ccc(-c2ccccc2)cc1 [compound 132] | 10 | – | –
O=C(N[C@@H](Cc1ccccc1)C(=O)N(Cc1ccc(F)cc1)c1cccc(OCCN2CCOCC2)c1)C(c1ccccc1)c1ccccc1 [compound 133] | 6 | – | –
COc1cccc(CC(=O)N[C@@H](Cc2ccccc2)C(=O)N(Cc2ccc(F)cc2)c2cccc(OCCN3CCOCC3)c2)c1 [compound 134] | 0 | – | –
O=C([C@H](Cc1ccccc1)NS(=O)(=O)c1ccc(-c2ccccc2)cc1)N(Cc1ccc(F)cc1)c1cccc(OCCN2CCOCC2)c1 [compound 135] | 8 | – | –
O=C(c1cccc(CN(C(=O)c2ccc(F)cc2)c2cccc(OCCN3CCOCC3)c2)c1)N(CCc1ccccc1)Cc1ccccc1 [compound 136] | 43 | – | –
O=C(NC(c1ccccc1)c1ccccc1)c1cccc(CN(C(=O)c2ccc(F)cc2)c2cccc(OCCN3CCOCC3)c2)c1 [compound 137] | 30 | – | –
O=C(NCCc1ccccc1)c1cccc(CN(C(=O)c2ccc(F)cc2)c2cccc(OCCN3CCOCC3)c2)c1 [compound 138] | – | 36 | –
CC(C)(C)CN(Cc1ccccc1)C(=O)c1cccc(CN(C(=O)c2ccc(F)cc2)c2cccc(OCCN3CCOCC3)c2)c1 [compound 140] | 45 | – | –
CC(C)(C)CN(Cc1cccc(Cl)c1)C(=O)c1cccc(CN(C(=O)c2ccc(F)cc2)c2cccc(OCCN3CCOCC3)c2)c1 [compound 141] | 21 | – | –
O=C(c1ccc(F)cc1)N(Cc1cccc(C(=O)N2CCc3ccccc3C2c2ccccc2)c1)c1cccc(OCCN2CCOCC2)c1 (stereo not drawn) [compound 142] | 17 | – | –
O=C(CCCN(C(=O)c1ccc(F)cc1)c1cccc(OCCN2CCOCC2)c1)NC(c1ccccc1)c1ccccc1 [compound 143] | 0 | – | –
O=C(CCCN(C(=O)c1ccc(F)cc1)c1cccc(OCCN2CCOCC2)c1)N(CCCc1ccccc1)Cc1ccccc1 [compound 144] | 54 | – | –
CC(C)(C)CN(Cc1ccccc1)C(=O)CCCN(C(=O)c1ccc(F)cc1)c1cccc(OCCN2CCOCC2)c1 [compound 145] | 35 | – | –
COc1ccc(CCN(Cc2ccccc2)C(=O)CCCN(C(=O)c2ccc(F)cc2)c2cccc(OCCN3CCOCC3)c2)cc1 [compound 146] | 32 | – | –
COc1ccc(CCN(Cc2cccc(Cl)c2)C(=O)CCCN(C(=O)c2ccc(F)cc2)c2cccc(OCCN3CCOCC3)c2)cc1 [compound 147] | – | 61 | 6.31
O=C(c1ccc(F)cc1)N(CCCC(=O)N1CCc2ccccc2C1c1ccccc1)c1cccc(OCCN2CCOCC2)c1 (stereo not drawn) [compound 148] | 19 | – | –
O=C(CCCN(C(=O)c1ccc(F)cc1)c1cccc(OCCN2CCOCC2)c1)N1CCN(C(c2ccccc2)c2ccc(Cl)cc2)CC1 (stereo not drawn) [compound 149] | 27 | – | –
O=C([C@H](Cc1ccccc1)N(Cc1ccccc1)C(=O)C(Cl)(Cl)Cl)N(Cc1ccc(F)cc1)c1cccc(OCCN2CCOCC2)c1 [compound 151] | 1 | – | –
O=C([C@H](Cc1ccccc1)N(Cc1ccccc1)C(=O)CCc1ccccc1)N(Cc1ccc(F)cc1)c1cccc(OCCN2CCOCC2)c1 [compound 152] | 0 | – | –
O=C(C1CC=CCC1C(=O)N(Cc1ccc(F)cc1)c1cccc(OCCN2CCOCC2)c1)N(CCc1ccccc1)Cc1ccccc1 (stereo not drawn) [compound 155] | 34 | – | –
O=C(Nc1cccc(OCCN2CCOCC2)c1)C1=C(C(=O)N(CCc2ccccc2)Cc2ccccc2)CCC1 [compound 156] | 18 | – | –
O=C(CCCC(=O)N(Cc1ccc(F)cc1)c1cccc(OCCN2CCOCC2)c1)N(CCCc1ccccc1)Cc1ccccc1 [compound 159] | – | 83 | 6.56
O=C(CCC(=O)N(Cc1ccccc1F)c1cccc(OCCN2CCOCC2)c1)N(CCc1ccccc1)Cc1ccccc1 [compound 165] | – | 63 | 6.26
COc1ccc(CN(C(=O)CCC(=O)N(CCc2ccccc2)Cc2ccccc2)c2cccc(OCCN3CCOCC3)c2)cc1 [compound 166] | 23 | – | –

Compound | Rabbit Colon % Inh [%] | inhibition [%] | pIC50
O=C(CCC(=O)N(Cc1ccc(C(F)(F)F)cc1)c1cccc(OCCN2CCOCC2)c1)N(CCc1ccccc1)Cc1ccccc1 [compound 167] | 42 | – | –
O=C(CCC(=O)N(Cc1ccc(Cl)cc1)c1cccc(OCCN2CCOCC2)c1)N(CCc1ccccc1)Cc1ccccc1 [compound 168] | 36 | – | –
O=C(CCCC(=O)N(Cc1ccc(C(F)(F)F)cc1)c1cccc(OCCN2CCOCC2)c1)N(CCc1ccccc1)Cc1ccccc1 [compound 172] | 40 | – | –
O=C(c1ccc(F)cc1)N(CC1CCC(N(Cc2ccccn2)C(=O)C(Cl)(Cl)Cl)CC1)c1cccc(OCCN2CCOCC2)c1 (stereo not drawn) [compound 174] | 0 | – | –
O=C(CCCC(=O)N(Cc1ccc(F)cc1)c1cccc(O)c1)N(CCc1ccccc1)Cc1ccccc1 [compound 175] | 0 | – | –
O=C1CCCN1CCOc1cccc(N(Cc2ccc(F)cc2)C(=O)CCCC(=O)N(CCc2ccccc2)Cc2ccccc2)c1 [compound 176] | 32 | – | –
O=C(Nc1ccccc1)N(CC1CCC(N(Cc2ccccc2)C(=O)Cc2ccccc2)CC1)c1cccc(OCCN2CCOCC2)c1 (stereo not drawn) [compound 183] | 2 | – | –
COc1cccc(C(=O)N(Cc2cccc(Cl)c2)C2CCC(CN(C(=O)Nc3ccccc3)c3cccc(OCCN4CCOCC4)c3)CC2)c1 (stereo not drawn) [compound 184] | 6 | – | –
O=C(Nc1ccccc1)N(CC1CCC(N(Cc2cccc(Cl)c2)C(=O)c2ccco2)CC1)c1cccc(OCCN2CCOCC2)c1 (stereo not drawn) [compound 185] | 0 | – | –
COc1cccc(C(=O)N(Cc2cccc([N+](=O)[O-])c2)C2CCC(CN(C(=O)Nc3ccccc3)c3cccc(OCCN4CCOCC4)c3)CC2)c1 (stereo not drawn) [compound 186] | 0 | – | –
CN(C)CCCOc1cccc(N(Cc2ccc(F)cc2)C(=O)CCCC(=O)N(CCc2ccccc2)Cc2ccccc2)c1 [compound 187] | – | 100 | 6.64
CC(CC(=O)N(CCc1ccccc1)Cc1ccccc1)CC(=O)N(Cc1ccc(F)cc1)c1cccc(OCCN2CCOCC2)c1 (stereo not drawn) [compound 189] | – | 70 | 6.52
O=C(CCCC(=O)N(Cc1ccc(F)cc1)c1ccc(OCCN2CCCC2)cc1)N(CCc1ccccc1)Cc1ccccc1 [compound 191] | 27 | – | –
O=C(CCCC(=O)N(Cc1ccc(F)cc1)c1ccc(OCCN2CCOCC2)cc1)N(CCc1ccccc1)Cc1ccccc1 [compound 192] | 15 | – | –
O=C(CCCC(=O)N(Cc1ccc(F)cc1)c1ccc(OCCCN2CCCCC2)cc1)N(CCc1ccccc1)Cc1ccccc1 [compound 193] | 7 | – | –
CN(C)CCOc1ccc(N(Cc2ccc(F)cc2)C(=O)CCCC(=O)N(CCc2ccccc2)Cc2ccccc2)cc1 [compound 194] | 23 | – | –
CCN(CC)CCOc1ccc(N(Cc2ccc(F)cc2)C(=O)CCCC(=O)N(CCc2ccccc2)Cc2ccccc2)cc1 [compound 195] | 62 | – | –
COc1cccc(CN(Cc2cccc(Cl)c2)C(=O)CCCC(=O)N(Cc2ccc(F)cc2)c2cccc(OCCN3CCCC3)c2)c1 [compound 198] | – | 100 | 6.97
O=C(CCCC(=O)N(Cc1ccc(F)cc1)c1cccc(OCCN2CCCC2)c1)N(CCc1ccccc1)Cc1cc(Cl)cc(Cl)c1 [compound 199] | – | 91 | 7.00
O=C(CCCC(=O)N(Cc1ccc(F)cc1)c1cccc(OCCN2CCCC2)c1)N(CCc1ccccc1)Cc1cccc(C(F)(F)F)c1 [compound 200] | – | 92 | 7.39
O=C(CCCC(=O)N(Cc1ccc(F)cc1)c1cccc(OCCN2CCCC2)c1)N(CCN1CCCC1)Cc1cccc(Cl)c1 [compound 203] | – | 98 | 6.62
O=C(CCCC(=O)N(Cc1ccc(F)cc1)c1cccc(OCCN2CCOCC2)c1)N(CCc1ccccc1)Cc1cccc([N+](=O)[O-])c1 [compound 205] | – | 76 | 7.00
COc1cccc(CN(Cc2cccc(Cl)c2)C(=O)CCCC(=O)N(Cc2ccc(F)cc2)c2cccc(OCCN3CCOCC3)c2)c1 [compound 206] | – | 60 | 6.11
Cc1ccc(OCCN2CCCC2)cc1N(Cc1ccc(F)cc1)C(=O)CCCC(=O)N(CCc1ccccc1)Cc1ccccc1 [compound 207] | – | 87 | 7.19
O=C(c1ccc(F)cc1)N(CC1CCCC(N(Cc2cccc([N+](=O)[O-])c2)C(=O)C(Cl)(Cl)Cl)C1)c1cccc(OCCN2CCCC2)c1 (stereo not drawn) [compound 211] | – | 100 | 7.85
O=C(c1ccc(F)cc1)N(CC1CCCC(N(Cc2cccc(Cl)c2)C(=O)C(Cl)(Cl)Cl)C1)c1cccc(OCCN2CCCC2)c1 (stereo not drawn) [compound 212] | – | 89 | 7.24
